# Experimental data as given in patent US6908935B2, “Calcium receptor modulating agents” (Amgen Inc., priority 2002, dated 2005).
# Biological target: T1, human parathyroid cell Ca^2+ receptor (hPCaR) (Homo sapiens, UniProt P41180)
# T1 construct: expressed in transfected cells
# T1 sequence (P41180 20-1078): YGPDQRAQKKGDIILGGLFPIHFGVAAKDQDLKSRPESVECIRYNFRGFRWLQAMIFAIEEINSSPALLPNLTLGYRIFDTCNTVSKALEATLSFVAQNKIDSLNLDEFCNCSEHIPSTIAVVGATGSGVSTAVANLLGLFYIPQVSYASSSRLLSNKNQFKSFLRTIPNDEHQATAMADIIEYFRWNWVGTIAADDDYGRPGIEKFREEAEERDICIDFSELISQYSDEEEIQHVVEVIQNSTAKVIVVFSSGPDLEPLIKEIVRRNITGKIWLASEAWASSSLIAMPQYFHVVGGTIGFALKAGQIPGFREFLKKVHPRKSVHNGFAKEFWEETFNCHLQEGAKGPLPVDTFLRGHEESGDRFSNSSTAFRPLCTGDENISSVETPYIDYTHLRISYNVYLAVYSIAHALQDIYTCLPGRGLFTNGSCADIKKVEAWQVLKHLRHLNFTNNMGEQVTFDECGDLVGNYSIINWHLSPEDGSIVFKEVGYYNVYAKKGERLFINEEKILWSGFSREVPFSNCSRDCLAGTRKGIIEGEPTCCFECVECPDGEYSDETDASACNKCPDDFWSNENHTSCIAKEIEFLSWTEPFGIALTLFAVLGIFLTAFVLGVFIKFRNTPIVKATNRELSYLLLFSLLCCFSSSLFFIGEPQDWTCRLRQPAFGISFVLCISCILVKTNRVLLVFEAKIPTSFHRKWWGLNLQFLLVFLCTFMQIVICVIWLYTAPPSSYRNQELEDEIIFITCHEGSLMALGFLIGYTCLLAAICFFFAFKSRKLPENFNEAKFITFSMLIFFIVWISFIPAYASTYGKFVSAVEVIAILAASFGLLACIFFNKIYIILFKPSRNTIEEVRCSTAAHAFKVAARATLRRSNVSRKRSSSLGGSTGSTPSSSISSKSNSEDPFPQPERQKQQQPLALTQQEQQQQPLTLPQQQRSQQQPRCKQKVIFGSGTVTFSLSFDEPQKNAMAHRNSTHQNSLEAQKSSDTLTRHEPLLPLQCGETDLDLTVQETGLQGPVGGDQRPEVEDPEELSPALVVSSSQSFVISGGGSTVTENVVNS
# Assay: [Ca2+]i measurement with fluo-3 in HEK 293 4.0-7 cells stably transfected with hPCaR
# Type: cell-based
# Conditions: fluo-3 fluorescence (485/530 nm), effect on [Ca^2+]i
# How it was run: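 HEK 293 cells stably expressing human parathyroid Ca2+ receptor (clone 4.0-7), loaded with 2 μM fluo-3 AM for 30 min at 37 °C in parathyroid cell buffer (pH 7.45) with 1 mM CaCl2 and 0.5% BSA. After compound addition, intracellular Ca2+ followed by fluorescence at 485 nm excitation/530 nm emission.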
row,Compound,EC50
1,COc1ccc(CN[C@H](C)c2ccc3ccccc3c2)cc1-c1ccsc1 [(1R)-N-((4-(methyloxy)-3-(3-thienyl)phenyl)methyl)-1-(2-naphthalenyl)ethanamine],≤ 10 µM
2,COc1ccc(CN[C@H](C)c2ccc(C)cc2)cc1-c1ccsc1 [(1R)-N-((4-(methyloxy)-3-(3-thienyl)phenyl)methyl)-1-(4-methylphenyl)ethanamine],≤ 10 µM
3,COc1ccc(CN[C@H](C)c2ccccc2)cc1-c1ccsc1 [(1R)-N-((4-(methyloxy)-3-(3-thienyl)phenyl)methyl)-1-phenylethanamine],≤ 10 µM
4,COc1cccc([C@@H](C)NCc2ccc(OC)c(-c3cc(OC)ccn3)c2)c1 [(1R)-N-((4-(methyloxy)-3-(4-(methyloxy)-2-pyridinyl)phenyl)methyl)-1-(3-(methyloxy)phenyl)ethanamine],≤ 10 µM
5,COc1ccnc(-c2cc(CN[C@H](C)c3ccccc3)ccc2OC)c1 [(1R)-N-((4-(methyloxy)-3-(4-(methyloxy)-2-pyridinyl)phenyl)methyl)-1-phenylethanamine],≤ 10 µM
6,COc1ccc(CN[C@H](C)c2cccc3ccccc23)cc1C1CCNCC1 [(1R)-N-((4-(methyloxy)-3-(4-piperidinyl)phenyl)methyl)-1-(1-naphthalenyl)ethanamine],≤ 10 µM
7,COc1ccc(-c2cc(CN[C@H](C)c3cccc4ccccc34)ccc2OC)nc1 [(1R)-N-((4-(methyloxy)-3-(5-(methyloxy)-2-pyridinyl)phenyl)methyl)-1-(1-naphthalenyl)ethanamine],≤ 10 µM
8,COc1ccc(-c2cc(CN[C@H](C)c3cccc(OC)c3)ccc2OC)nc1 [(1R)-N-((4-(methyloxy)-3-(5-(methyloxy)-2-pyridinyl)phenyl)methyl)-1-(3-(methyloxy)phenyl)ethanamine],≤ 10 µM
9,COc1ccc(-c2cc(CN[C@H](C)c3ccccc3)ccc2OC)nc1 [(1R)-N-((4-(methyloxy)-3-(5-(methyloxy)-2-pyridinyl)phenyl)methyl)-1-phenylethanamine],≤ 10 µM
10,"COc1ccc(CN[C@H](C)c2cccc3ccccc23)cc1-c1nnc(C(F)(F)F)o1 [(1R)-N-((4-(methyloxy)-3-(5-(trifluoromethyl)-1,3,4-oxadiazol-2-yl)phenyl)methyl)-1-(1-naphthalenyl)ethanamine]",≤ 10 µM
11,"COc1ccc(CN[C@H](C)c2ccccc2)cc1-c1nnc(C(F)(F)F)o1 [(1R)-N-((4-(methyloxy)-3-(5-(trifluoromethyl)-1,3,4-oxadiazol-2-yl)phenyl)methyl)-1-phenylethanamine]",≤ 10 µM
12,COc1ccc(CN[C@H](C)c2ccc(C)cc2)cc1-c1cncnc1 [(1R)-N-((4-(methyloxy)-3-(5-pyrimidinyl)phenyl)methyl)-1-(4-methylphenyl)ethanamine],≤ 10 µM
13,COc1ccc(CN[C@H](C)c2ccccc2)cc1-c1cncnc1 [(1R)-N-((4-(methyloxy)-3-(5-pyrimidinyl)phenyl)methyl)-1-phenylethanamine],≤ 10 µM
14,"COc1ccc(CN[C@H](C)c2cccc3ccccc23)cc1-c1ccc(OCC(F)(F)F)nc1 [(1R)-N-((4-(methyloxy)-3-(6-((2,2,2-trifluoroethyl)oxy)-3-pyridinyl)phenyl)methyl)-1-(1-naphthalenyl)ethanamine]",≤ 10 µM
15,"COc1ccc(CN[C@H](C)c2ccccc2)cc1-c1ccc(OCC(F)(F)F)nc1 [(1R)-N-((4-(methyloxy)-3-(6-((2,2,2-trifluoroethyl)oxy)-3-pyridinyl)phenyl)methyl)-1-phenylethanamine]",≤ 10 µM
16,COc1ccc(CN[C@H](C)c2cccc3ccccc23)cc1-c1ccc(OCCN2CCCC2)nc1 [(1R)-N-((4-(methyloxy)-3-(6-((2-(1-pyrrolidinyl)ethyl)oxy)-3-pyridinyl)phenyl)methyl)-1-(1-naphthalenyl)ethanamine],≤ 10 µM
17,COc1ccc(CN[C@H](C)c2ccccc2)cc1-c1ccc(OCCN2CCCC2)nc1 [(1R)-N-((4-(methyloxy)-3-(6-((2-(1-pyrrolidinyl)ethyl)oxy)-3-pyridinyl)phenyl)methyl)-1-phenylethanamine],≤ 10 µM
18,COCCOc1ccc(-c2cc(CN[C@H](C)c3ccccc3)ccc2OC)cn1 [(1R)-N-((4-(methyloxy)-3-(6-((2-(methyloxy)ethyl)oxy)-3-pyridinyl)phenyl)methyl)-1-phenylethanamine],≤ 10 µM

# Next, values leading:
row,EC50,Compound
1,≤ 10 µM,COc1ccc(CN[C@H](C)c2ccccc2)cc1-c1cccnc1OCC1CCCO1 (stereo partly drawn) [(1R)-N-((4-(methyloxy)-3-(2-((tetrahydro-2-furanylmethyl)oxy)-3-pyridinyl)phenyl)methyl)-1-phenylethanamine]
2,≤ 10 µM,"COc1ccc(CN[C@H](C)c2cccc3ccccc23)cc1-c1csc(C)n1 [(1R)-N-((4-(methyloxy)-3-(2-methyl-1,3-thiazol-4-yl)phenyl)methyl)-1-(1-naphthalenyl)ethanamine]"
3,≤ 10 µM,"COc1cccc([C@@H](C)NCc2ccc(OC)c(-c3csc(C)n3)c2)c1 [(1R)-N-((4-(methyloxy)-3-(2-methyl-1,3-thiazol-4-yl)phenyl)methyl)-1-(3-(methyloxy)phenyl)ethanamine]"
4,≤ 10 µM,"COc1ccc(CN[C@H](C)c2ccccc2)cc1-c1csc(C)n1 [(1R)-N-((4-(methyloxy)-3-(2-methyl-1,3-thiazol-4-yl)phenyl)methyl)-1-phenylethanamine]"
5,≤ 10 µM,COc1ccc(CN[C@H](C)c2cccc3ccccc23)cc1-c1ccc2ccccc2c1 [(1R)-N-((4-(methyloxy)-3-(2-naphthalenyl)phenyl)methyl)-1-(1-naphthalenyl)ethanamine]
6,≤ 10 µM,COc1cccc([C@@H](C)NCc2ccc(OC)c(-c3ccc4ccccc4c3)c2)c1 [(1R)-N-((4-(methyloxy)-3-(2-naphthalenyl)phenyl)methyl)-1-(3-(methyloxy)phenyl)ethanamine]
7,≤ 10 µM,COc1ccc(CN[C@H](C)c2ccccc2)cc1-c1ccc2ccccc2c1 [(1R)-N-((4-(methyloxy)-3-(2-naphthalenyl)phenyl)methyl)-1-phenylethanamine]
8,≤ 10 µM,COc1ccc(CN[C@H](C)c2cccc3ccccc23)cc1-c1cnccn1 [(1R)-N-((4-(methyloxy)-3-(2-pyrazinyl)phenyl)methyl)-1-(1-naphthalenyl)ethanamine]
9,≤ 10 µM,COc1ccc(CN[C@H](C)c2ccc3ccccc3c2)cc1-c1cnccn1 [(1R)-N-((4-(methyloxy)-3-(2-pyrazinyl)phenyl)methyl)-1-(2-naphthalenyl)ethanamine]
10,≤ 10 µM,COc1ccc(CN[C@H](C)c2ccc(C)cc2)cc1-c1cnccn1 [(1R)-N-((4-(methyloxy)-3-(2-pyrazinyl)phenyl)methyl)-1-(4-methylphenyl)ethanamine]
11,≤ 10 µM,COc1ccc(CN[C@H](C)c2cccc3ccccc23)cc1-c1ccccn1 [(1R)-N-((4-(methyloxy)-3-(2-pyridinyl)phenyl)methyl)-1-(1-naphthalenyl)ethanamine]
12,≤ 10 µM,COc1ccc(CN[C@H](C)c2cccc3ccccc23)cc1-c1ncccn1 [(1R)-N-((4-(methyloxy)-3-(2-pyrimidinyl)phenyl)methyl)-1-(1-naphthalenyl)ethanamine]
13,≤ 10 µM,COc1ccc(CN[C@H](C)c2ccccc2)cc1-c1ncccn1 [(1R)-N-((4-(methyloxy)-3-(2-pyrimidinyl)phenyl)methyl)-1-phenylethanamine]
14,≤ 10 µM,COc1ccc(CN[C@H](C)c2cccc3ccccc23)cc1-c1cccs1 [(1R)-N-((4-(methyloxy)-3-(2-thienyl)phenyl)methyl)-1-(1-naphthalenyl)ethanamine]
15,≤ 10 µM,COc1ccc(CN[C@H](C)c2ccccc2)cc1-c1cccs1 [(1R)-N-((4-(methyloxy)-3-(2-thienyl)phenyl)methyl)-1-phenylethanamine]
16,≤ 10 µM,COc1ccc(CN[C@H](C)c2cccc3ccccc23)cc1-c1cccnc1 [(1R)-N-((4-(methyloxy)-3-(3-pyridinyl)phenyl)methyl)-1-(1-naphthalenyl)ethanamine]
17,≤ 10 µM,COc1ccc(CN[C@H](C)c2ccc(C)cc2)cc1-c1cccnc1 [(1R)-N-((4-(methyloxy)-3-(3-pyridinyl)phenyl)methyl)-1-(4-methylphenyl)ethanamine]
18,≤ 10 µM,COc1ccc(CN[C@H](C)c2cccc3ccccc23)cc1-c1ccsc1 [(1R)-N-((4-(methyloxy)-3-(3-thienyl)phenyl)methyl)-1-(1-naphthalenyl)ethanamine]
